According to US20020019536A1, “NEW URETHANES, THIO AND DITHIO ANALOGUES AND THEIR USE AS INHIBITORS OF CHOLESTEROL BIOSYNTHESIS” (priority 1997, published 2002):

Assays:
[1] = system: 14C-acetate incorporation into the steroids which can be precipitated with digitonin (cholesterol biosynthesis); assay: Inhibition of 14C-acetate incorporation into the steroids which can be precipitated with digitonin; type: cell-based
From the text: I. Measuring the Inhibition of ^14C-acetate incorporation into the steroids which can be precipitated with digitonin: The inhibitory effect was investigated using the method described in J. Lipid. Res. 37, 148-157 [1996] at test concentrations of 10^−8 and 10^−9 mol/l.

[2] = system: HaCat cells (human keratinocytes); assay: Inhibition of cell proliferation (BrdU ELISA); type: cell-based; settings: 10^−6 mol/l, average of three measurements, given as a percentage of the control (control 100%)
Procedure: IV. Inhibition of Cell Proliferation
HaCat cells (human keratinocytes) are seeded at a density of 10,000 cells per well in a 96 well microtitre plate. The culture medium used is Dulbecco's modified eagle medium (DMEM) with the addition of 10% calf serum. The cells are incubated for two days in an incubator, then the test substance, dissolved in dimethyl sulphoxide and diluted with culture medium, is added. After another two days incubation, 5-bromo-2′-deoxyuridine is added and the test results are determined according to the instructions (Boehringer Mannheim, Cell proliferation ELISA, BrdU(colorimetric)). The BrdU measurement was carried out at 380-490 nm in the Plate Reader made by Bio Rad.
The proliferation-inhibiting activity of compounds E, G and H was investigated. The average of three measurements was calculated and the results are given as a percentage of the control (Table 5).

[3] = target: T1, 2,3-epoxysqualene-lanosterol-cyclase (Rattus norvegicus, UniProt P48450); assay: In-vivo activity in the rat after oral administration: 2,3-epoxysqualene level in the liver
T1 construct: Measuring the in-vivo Activity in the Rat after Oral Administration; from tissue; host or cells: living rat; 2,3-epoxysqualene measured in the liver
T1 sequence (P48450 1-733): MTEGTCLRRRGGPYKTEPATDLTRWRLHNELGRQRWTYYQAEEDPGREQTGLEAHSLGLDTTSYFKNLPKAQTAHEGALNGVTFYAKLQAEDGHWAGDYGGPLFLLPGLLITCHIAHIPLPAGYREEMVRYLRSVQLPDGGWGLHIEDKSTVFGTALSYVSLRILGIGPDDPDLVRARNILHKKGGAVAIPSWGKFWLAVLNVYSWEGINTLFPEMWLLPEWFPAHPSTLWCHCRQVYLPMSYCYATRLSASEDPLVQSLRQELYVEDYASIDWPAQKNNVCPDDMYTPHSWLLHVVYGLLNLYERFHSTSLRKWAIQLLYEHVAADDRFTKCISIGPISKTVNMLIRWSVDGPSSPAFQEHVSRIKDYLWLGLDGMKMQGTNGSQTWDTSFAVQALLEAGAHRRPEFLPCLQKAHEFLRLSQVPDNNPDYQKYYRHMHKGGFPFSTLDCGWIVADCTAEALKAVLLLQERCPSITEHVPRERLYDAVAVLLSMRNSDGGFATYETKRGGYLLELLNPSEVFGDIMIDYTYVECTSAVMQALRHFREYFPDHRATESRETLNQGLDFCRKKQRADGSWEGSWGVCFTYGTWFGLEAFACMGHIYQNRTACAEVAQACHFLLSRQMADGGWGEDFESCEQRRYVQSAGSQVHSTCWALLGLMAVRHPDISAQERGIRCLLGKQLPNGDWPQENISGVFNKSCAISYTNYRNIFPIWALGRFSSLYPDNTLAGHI
Procedure: II. Measuring the in-vivo Activity in the Rat after Oral Administration
Inhibiting the enzyme 2,3-epoxysqualene-lanosterol-cyclase causes an increase in the 2,3-epoxisqualene levels in the liver and plasma. The quantity of 2,3-epoxysqualene formed therefore serves as a direct measurement of the potency on the animal as a whole. The amounts were determined using the method described in J. Lipid. Res. 38, 564-575, [1997] at t=3 or 8 hours after administration of the substance in concentrations of c=0.01, 0.03, 0.1, 0.3 and 1.0 mg/kg. Table 3 which follows gives the results obtained for the abovementioned substances A, B, C, E, G, H, O and R by way of example.
In the control animals there were no measurable 2,3-epoxisqualene levels under these conditions.

[4] = Lipid reduction in the normolipaemic golden hamster; type: in vivo; settings: compared with control group
Procedure: III. Lipid Reduction in the Normolipaemic Golden Hamster This was determined using the method described in J. Lipid. Res. 38, 564-575, (1997). At the end of the experiment the total cholesterol, β-lipoprotein-cholesterol and HDL-cholesterol were determined and compared with the values of a control group which were fed without any test substance. The lipid-lowering activity of the abovementioned compounds E, G and I was tested.

[5] = system: Cand. albicans ATCC 10231; assay: Fungistatic activity, series dilution test; type: cell-based; settings: Sabouraud broth, 2 to 4 days at 26° C.
Procedure: (§1) V. Determining the Fungistatic Activity
(§2) The fungistatic activity was determined by the series dilution test (microtitre system). Sabouraud broth was used as the nutrient medium. The inoculum amounted to about 10^4 to 10^5 CFU/ml (CFU=colony-forming units); the incubation period was 2 to 4 days at 26° C.
(§3) The lowest concentration which allows no visible growth (minimum inhibitory concentration MIC) was determined.
(§4) The abovementioned compounds B, E, G, I, K, L, N, Q and R were tested. The MIC is given in μg/ml.

[6] = system: Sacch. carisbergensis ATCC 9080; assay: Fungistatic activity, series dilution test; type: cell-based; settings: Sabouraud broth, 2 to 4 days at 26° C.
Procedure: as §1, §2, §3, §4

[7] = system: Rhod. rubra 49; assay: Fungistatic activity, series dilution test; type: cell-based; settings: Sabouraud broth, 2 to 4 days at 26° C.
Procedure: as §1, §2, §3, §4

[8] = system: Asp. niger ATCC 16404; assay: Fungistatic activity, series dilution test; type: cell-based; settings: Sabouraud broth, 2 to 4 days at 26° C.
Procedure: as §1, §2, §3, §4

[9] = system: Pen. notatum CBS 19746; assay: Fungistatic activity, series dilution test; type: cell-based; settings: Sabouraud broth, 2 to 4 days at 26° C.
Procedure: as §1, §2, §3, §4

[10] = system: Trich. mentagrophytes ATCC 9129; assay: Fungistatic activity, series dilution test; type: cell-based; settings: Sabouraud broth, 2 to 4 days at 26° C.
Procedure: as §1, §2, §3, §4

CN(C)Cc1ccc([C@H]2CC[C@H](N(C)C(=O)Oc3ccc(Cl)cc3)CC2)cc1.Cl [E, trans-O-(4-chlorophenyl)-N-4-[4-(dimethylaminomethyl)-phenyl]cyclohexyl-N-methylcarbamate-hydrochloride]
IC50 ([1]; 14C-acetate incorporation): 0.3 nM
percentage inhibition of 14C-acetate incorporation ([1]; test concentration 10^−8 mol/l): −85%
percentage inhibition of 14C-acetate incorporation ([1]; test concentration 10^−9 mol/l): −57%
Cell proliferation (% of control) [2]: 19.6%
2,3-epoxysqualene concentration in the liver (rat) ([3]; 0.01 mg/kg oral, 3 h after administration): 20.3 µg/g
2,3-epoxysqualene concentration in the liver (rat) ([3]; 0.01 mg/kg oral, 8 h after administration): 32.7 µg/g
2,3-epoxysqualene concentration in the liver (rat) ([3]; 0.03 mg/kg oral, 3 h after administration): 39.0 µg/g
2,3-epoxysqualene concentration in the liver (rat) ([3]; 0.03 mg/kg oral, 8 h after administration): 44.6 µg/g
2,3-epoxysqualene concentration in the liver (rat) ([3]; 0.1 mg/kg oral, 3 h after administration): 92.5 µg/g
2,3-epoxysqualene concentration in the liver (rat) ([3]; 0.1 mg/kg oral, 8 h after administration): 191.5 µg/g
2,3-epoxysqualene concentration in the liver (rat) ([3]; 0.3 mg/kg oral, 3 h after administration): 63.4 µg/g
2,3-epoxysqualene concentration in the liver (rat) ([3]; 0.3 mg/kg oral, 8 h after administration): 180.0 µg/g
HDL-cholesterol ([4]; dose 0.5 mg/kg/day): −18.2%
Total cholesterol ([4]; dose 0.5 mg/kg/day): −22.5%
β-Lipoprotein-cholesterol ([4]; dose 0.5 mg/kg/day): −27.5%
HDL-cholesterol ([4]; dose 1.5 mg/kg/day): −24.0%
Total cholesterol ([4]; dose 1.5 mg/kg/day): −34.1%
β-Lipoprotein-cholesterol ([4]; dose 1.5 mg/kg/day): −48.4%
HDL-cholesterol ([4]; dose 4.9 mg/kg/day): −25.1%
Total cholesterol ([4]; dose 4.9 mg/kg/day): −34.3%
β-Lipoprotein-cholesterol ([4]; dose 4.9 mg/kg/day): −45.1%
MIC Cand. [5]: 16 µg/mL
MIC Sacc. [6]: 128 µg/mL
MIC Rhod. [7]: 16 µg/mL
MIC Asp. [8]: 4 µg/mL
MIC Pen. [9]: 2 µg/mL
MIC Trich. [10]: 2 µg/mL
